In US7550459B2, “Tetrahydroquinoline analogues as muscarinic agonists” (Acadia Pharmaceuticals, Inc., priority 2001, dated 2009):
Read-outs that look alike come from different tables or passages of the source.

What was measured:
M5 muscarinic receptor = molecular target: T1, M5 muscarinic receptor (Homo sapiens, UniProt P08912); assay: Receptor Selection and Amplification (R-SAT) assay, cloned M5 receptor; assay type: cell-based; settings: for Emax: read-out: m5 % Efficacy; for EC50: read-out: m5 pEC50 (converted)
T1 construct: expressed in transfected cells
T1 sequence (P08912 1-532): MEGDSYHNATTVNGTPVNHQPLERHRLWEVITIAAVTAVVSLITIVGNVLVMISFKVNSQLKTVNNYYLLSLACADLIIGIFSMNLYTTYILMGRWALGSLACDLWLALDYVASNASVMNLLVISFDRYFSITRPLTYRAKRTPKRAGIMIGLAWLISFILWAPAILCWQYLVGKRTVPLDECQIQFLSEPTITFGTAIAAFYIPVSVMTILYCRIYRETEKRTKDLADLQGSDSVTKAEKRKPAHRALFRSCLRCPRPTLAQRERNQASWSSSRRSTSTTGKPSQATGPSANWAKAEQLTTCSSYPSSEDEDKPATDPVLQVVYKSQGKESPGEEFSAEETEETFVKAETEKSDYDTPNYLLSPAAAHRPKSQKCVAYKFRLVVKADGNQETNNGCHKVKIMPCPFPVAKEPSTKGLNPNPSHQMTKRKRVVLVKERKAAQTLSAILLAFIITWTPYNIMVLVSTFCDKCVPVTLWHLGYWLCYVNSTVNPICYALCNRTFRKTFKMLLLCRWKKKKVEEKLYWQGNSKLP
Excerpt: (§1) The EC50 for an agonist is intended to denote the concentration of a compound needed to achieve 50% of a maximal response seen in an in vitro assay such as R-SAT. For inverse agonists, EC50 is intended to denote the concentration of a compound needed to achieve 50% inhibition of an R-SAT response from basal, no compound, levels.
(§2) A particularly convenient functional assay system is the receptor selection and amplification assay (R-SAT assay) in U.S. Pat. No. 5,707,798, which describes a method of screening for bioactive compounds by utilizing the ability of cells transfected with receptor DNA, e.g., coding for the different muscarinic subtypes, to amplify in the presence of a ligand of the receptor. Cell amplification is detected as increased levels of a marker also expressed by the cells.
(§3) Receptor Selection and Amplification (R-SAT) assays were carried out using the cloned M1-M5 receptors essentially as described in: Brauner-Osborne H, Brann M R. Pharmacology of muscarinic acetylcholine receptor subtypes (m1-m5): high throughput assays in mammalian cells. Eur J Pharmacol Jan. 4, 1996;295(1):93-102, and Spalding T A, Trotter C, Skjaerbaek N, Messier T L, Currier E A, Burstein E S, Li D, Hacksell U, Brann M R. Discovery of an ectopic activation site on the M(1) muscarinic receptor. Mol Pharmacol. 2002 June;61(6):1297-302.

M2 muscarinic receptor = molecular target: T2, M2 muscarinic receptor (Homo sapiens, UniProt P08172); assay: Receptor Selection and Amplification (R-SAT) assay, cloned M2 receptor; assay type: cell-based; parameters: M2 Eff: scale not given here; settings: for Emax: read-out: m2 % Efficacy
T2 construct: expressed in transfected cells
T2 sequence (P08172 1-466): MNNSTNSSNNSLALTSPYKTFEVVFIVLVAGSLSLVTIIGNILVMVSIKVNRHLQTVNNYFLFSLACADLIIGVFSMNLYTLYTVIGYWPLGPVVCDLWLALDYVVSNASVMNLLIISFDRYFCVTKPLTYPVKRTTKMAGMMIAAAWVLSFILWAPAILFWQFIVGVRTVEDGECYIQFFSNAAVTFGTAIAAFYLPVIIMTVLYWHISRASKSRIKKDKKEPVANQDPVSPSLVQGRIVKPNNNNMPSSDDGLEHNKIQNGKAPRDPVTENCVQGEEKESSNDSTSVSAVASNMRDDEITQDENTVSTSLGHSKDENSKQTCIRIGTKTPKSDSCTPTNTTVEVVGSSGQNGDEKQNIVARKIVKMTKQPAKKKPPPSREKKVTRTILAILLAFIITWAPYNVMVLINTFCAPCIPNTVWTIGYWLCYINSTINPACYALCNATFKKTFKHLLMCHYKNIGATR
Excerpt: as §1, §2, §3

M1 muscarinic receptor = molecular target: T3, M1 muscarinic receptor (Homo sapiens, UniProt P11229); assay: Receptor Selection and Amplification (R-SAT) assay, cloned M1 receptor; assay type: cell-based; parameters: M1 Eff: scale not given here; settings: for Emax: read-out: m1 % Efficacy
T3 construct: expressed in transfected cells
T3 sequence (P11229 1-460): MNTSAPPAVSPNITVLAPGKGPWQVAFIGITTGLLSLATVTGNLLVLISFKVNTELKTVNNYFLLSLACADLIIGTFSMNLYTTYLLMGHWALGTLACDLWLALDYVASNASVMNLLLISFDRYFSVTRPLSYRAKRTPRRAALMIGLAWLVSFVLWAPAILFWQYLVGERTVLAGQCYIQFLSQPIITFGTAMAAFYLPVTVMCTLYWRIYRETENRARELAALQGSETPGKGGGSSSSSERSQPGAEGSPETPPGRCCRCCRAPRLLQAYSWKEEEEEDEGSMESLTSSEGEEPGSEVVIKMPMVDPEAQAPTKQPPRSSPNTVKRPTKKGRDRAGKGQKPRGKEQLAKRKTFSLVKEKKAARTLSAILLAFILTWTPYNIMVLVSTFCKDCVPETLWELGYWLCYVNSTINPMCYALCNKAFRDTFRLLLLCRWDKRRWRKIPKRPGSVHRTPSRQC
Excerpt: as §1, §2, §3

M4 muscarinic receptor = molecular target: T4, M4 muscarinic receptor (Homo sapiens, UniProt P08173); assay: Receptor Selection and Amplification (R-SAT) assay, cloned M4 receptor; assay type: cell-based; settings: R-SAT, cloned m4 receptor; for Emax: read-out: m4 % Efficacy; for EC50: read-out: m4 pEC50 (converted)
T4 construct: expressed in transfected cells
T4 sequence (P08173 1-479): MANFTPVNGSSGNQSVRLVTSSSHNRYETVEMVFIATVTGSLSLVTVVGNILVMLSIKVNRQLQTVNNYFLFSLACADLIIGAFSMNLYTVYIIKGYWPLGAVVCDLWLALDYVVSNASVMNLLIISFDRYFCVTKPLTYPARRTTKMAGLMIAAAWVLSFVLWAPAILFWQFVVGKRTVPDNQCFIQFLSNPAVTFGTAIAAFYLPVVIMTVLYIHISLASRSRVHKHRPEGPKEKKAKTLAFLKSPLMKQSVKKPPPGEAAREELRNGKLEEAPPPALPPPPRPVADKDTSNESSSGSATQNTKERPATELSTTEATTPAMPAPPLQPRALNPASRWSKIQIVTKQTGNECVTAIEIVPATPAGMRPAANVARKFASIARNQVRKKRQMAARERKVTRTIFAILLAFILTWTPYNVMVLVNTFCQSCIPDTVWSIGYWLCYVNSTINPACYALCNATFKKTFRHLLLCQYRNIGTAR
Excerpt: as §1, §2, §3

M3 muscarinic receptor = molecular target: T5, M3 muscarinic receptor (Homo sapiens, UniProt P20309); assay: Receptor Selection and Amplification (R-SAT) assay, cloned M3 receptor; assay type: cell-based
T5 construct: expressed in transfected cells
T5 sequence (P20309 whole entry): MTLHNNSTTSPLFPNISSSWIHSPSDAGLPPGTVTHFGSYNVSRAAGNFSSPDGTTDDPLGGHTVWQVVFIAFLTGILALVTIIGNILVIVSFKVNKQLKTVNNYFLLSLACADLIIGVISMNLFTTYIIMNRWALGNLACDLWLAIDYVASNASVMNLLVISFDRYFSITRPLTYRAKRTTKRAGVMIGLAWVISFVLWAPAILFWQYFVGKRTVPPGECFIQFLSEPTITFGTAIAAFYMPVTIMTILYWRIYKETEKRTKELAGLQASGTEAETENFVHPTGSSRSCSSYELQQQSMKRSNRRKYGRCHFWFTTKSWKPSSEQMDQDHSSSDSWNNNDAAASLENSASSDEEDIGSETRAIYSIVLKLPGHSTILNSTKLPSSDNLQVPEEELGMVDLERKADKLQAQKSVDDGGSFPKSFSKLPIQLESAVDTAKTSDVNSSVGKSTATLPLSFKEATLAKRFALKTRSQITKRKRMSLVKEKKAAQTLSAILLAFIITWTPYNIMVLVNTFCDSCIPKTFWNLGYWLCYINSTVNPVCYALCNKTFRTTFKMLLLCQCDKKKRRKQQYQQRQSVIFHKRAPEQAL
Excerpt: as §1, §2, §3

[1] = some AChE inhibitors, such as tacrine; cited from earlier work
[2] = R-SAT, cloned m2 receptor, read-out: m2 pEC50 (converted)
[3] = R-SAT, cloned m1 receptor, read-out: m1 pEC50 (converted)
[4] = R-SAT, second table (COMPOUND ID series)
[5] = M2 pEC50, R-SAT, second table (COMPOUND ID series)
[6] = M1 pEC50, R-SAT, second table (COMPOUND ID series)

Emax (M5 muscarinic receptor) | EC50 (M5 muscarinic receptor) | Emax (M1 muscarinic receptor; R-SAT, cloned m1 receptor) | Emax (M4 muscarinic receptor) | EC50 (M4 muscarinic receptor) | EC50 (M1 muscarinic receptor; [3]) | Structure (SMILES) | EC50 (M3 muscarinic receptor) | M3 Eff (M3 muscarinic receptor; [4]) | EC50 (M2 muscarinic receptor; [5]) | M2 Eff (M2 muscarinic receptor; [4]) | EC50 (M1 muscarinic receptor; [6]) | M1 Eff (M1 muscarinic receptor; [4]) | further results
50% | 1.26 µM | 92% | 57% | 0.398 µM |  | CCCCC1CCN(CCCN2C(=O)COc3cc(F)ccc32)CC1 [Compound 81MF763, 4-[3-(4-Butylpiperidin-1-yl)propyl]-7-fluoro-4H-benzo[1,4]oxazin-3-one] |  |  |  |  |  |  | Emax (M2 muscarinic receptor; R-SAT, cloned m2 receptor): 47%; EC50 (M2 muscarinic receptor; [2]): 0.251 µM
37% | > 3.16 µM | 76% |  |  | 0.0794 µM | CCCCC1CCN(CCCN2C(=O)CCc3cc(OC)ccc32)CC1 [Compound 77LH22-A, 1-[3-(4-Butyl-piperidin-1-yl)-propyl]-6-methoxy-3,4-dihydro-1H-quinolin-2-one] |  |  |  |  |  |  | 
 |  |  |  |  |  | C[C@@H](CN1C(=O)COc2ccccc21)CN1[C@@H]2CC[C@H]1C[C@@H](OCC1CC1)C2 [Compound 00262909, (R)-4-[3-(3a -Cyclopropylmethoxy-8-azabicyclo[3.2.1]oct-8-yl)-2-methylpropyl]-4H-benzo[1.4]oxazin-3-one] | 0.398 µM | 52 | 0.0398 µM | 124 | 0.00251 µM | 137 | 
38% | 0.631 µM | 69% | 51% | 2 µM | 0.158 µM | CCCCC1CCN(CCCN2CCOc3ccc(CC)cc32)CC1 [Compound 64LHY91-5, 4-[3-(4-Butyl-piperidin-1-yl)-propyl]-6-ethyl-3,4-dihydro-2H-benzo[1,4]oxazine] |  |  |  |  |  |  | 
 |  |  |  |  |  | CCOCCC1CC2CCC(C1)N2CC(C)CN1C(=O)COc2ccccc21 (single isomer, unassigned) [Compound 00263201] | 0.158 µM | 30 | 0.0794 µM | 52 | 0.001 µM | 126 | 
 |  |  |  |  |  | Nc1c2c(nc3ccccc13)CCCC2 [tacrine] |  |  |  |  |  |  | patients with elevated liver transaminases (significant hepatotoxicity) [1]: about 30%
 |  |  |  |  |  | CCON=C1CC2CCC(C1)N2C[C@@H](C)CN1C(=O)COc2ccccc21 (single isomer, unassigned) [Compound 00261435] | 0.631 µM | 82.8 | 0.0794 µM | 128 | 0.00398 µM | 121 | 
 |  |  |  |  |  | CC(CN1CCC(OCC2CC2)CC1)CN1C(=O)COc2ccccc21 (racemic) [Compound 00262273, (R,S)-4-[3-(4-Cyclopropylmethoxypiperidin-1-yl)-2-methylpropyl]-4H-benzo[1,4]oxazin-3-one] |  | 35 |  | 98 |  | 155 | EC50 (M3 muscarinic receptor; R-SAT, second table (COMPOUND ID series), read-out: M3 pEC50 (converted)): 1.58 µM; EC50 (M2 muscarinic receptor; R-SAT, second table (COMPOUND ID series), read-out: M2 pEC50 (converted)): 0.794 µM; EC50 (M1 muscarinic receptor; R-SAT, second table (COMPOUND ID series), read-out: M1 pEC50 (converted)): 0.0251 µM
48% | 0.631 µM | 80% | 50% | 0.316 µM | 0.0398 µM | CCCCC1CCN(CCCN2C(=O)COc3ccc(C)cc32)CC1 [Compound 64LHY89-6, 4-[3-(4-Butyl-piperidin-1-yl)-propyl]-6-methyl-4H-benzo[1,4]oxazin-3-one] |  |  |  |  |  |  | Emax (M2 muscarinic receptor; R-SAT, cloned m2 receptor): 35%; EC50 (M2 muscarinic receptor; [2]): 0.631 µM
